Where “and” joins values, the source holds several entries; their conditions need not be identical. Equal values may be shown once. Inconclusive results and toxic doses are left out.
System: BDF1 mice, P388 leukemia ip, median survival T/C
Test: NCI In Vivo Anticancer Drug Screen. Data for tumor model P388 Leukemia (intraperitoneal) in B6D2F1 (BDF1) mice
Conditions: endpoint: median survival time, higher = longer survival
Procedure, shortened: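 Steps: implant the tumour, treat one group with compound and another with vehicle, record survival, then divide treated by control.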

[1] = dose: 100.0 mg/kg/injection, schedule: Q04DX003 (ip), vehicle: saline with Tween-80
[2] = dose: 100.0 mg/kg/injection, schedule: Q04DX003 (ip), vehicle: Klucel (hydroxypropylcellulose) (HPC)
[3] = dose: 200.0 mg/kg/injection, schedule: Q04DX003 (ip), vehicle: saline with Tween-80
[4] = dose: 400.0 mg/kg/injection, schedule: Q04DX003 (ip), vehicle: saline with Tween-80

## COc1ccc2nc3c(Cl)c(Cl)c(=O)c(Cl)c-3sc2c1
dose: 12.5 mg/kg/injection, schedule: Q01DX005 (ip), vehicle: saline with Tween-80
  T/C: 102 % of control
dose: 25.0 mg/kg/injection, schedule: Q01DX005 (ip), vehicle: saline with Tween-80
  T/C: 88 % of control

## O=c1oc(-c2cc([N+](=O)[O-])ccc2Cl)nc2ccccc12
dose: 25.0 mg/kg/injection, schedule: Q04DX003 (ip), vehicle: saline with Tween-80
  T/C: 95 % of control
[1]
  T/C: 95 % of control

## COc1ccc(/C=C/C(=O)c2ccc3c(c2)OCO3)cc1O
dose: 3.12 mg/kg/injection, schedule: Q01DX009 (ip), vehicle: saline
  T/C: 104 % of control and 106 % of control
dose: 6.25 mg/kg/injection, schedule: Q01DX009 (ip), vehicle: saline
  T/C: 93 % of control and 104 % of control
dose: 12.5 mg/kg/injection, schedule: Q01DX009 (ip), vehicle: saline
  T/C: 100 % of control
dose: 25.0 mg/kg/injection, schedule: Q01DX009 (ip), vehicle: saline
  T/C: 94 % of control and 110 % of control
dose: 50.0 mg/kg/injection, schedule: Q01DX009 (ip), vehicle: saline
  T/C: 101 % of control and 107 % of control
dose: 50.0 mg/kg/injection, schedule: Q04DX003 (ip), vehicle: saline
  T/C: 106 % of control
dose: 100.0 mg/kg/injection, schedule: Q01DX009 (ip), vehicle: saline
  T/C: 93 % of control and 96 % of control
dose: 100.0 mg/kg/injection, schedule: Q04DX003 (ip), vehicle: saline
  T/C: 113 % of control
dose: 200.0 mg/kg/injection, schedule: Q04DX003 (ip), vehicle: saline
  T/C: 104 % of control
dose: 400.0 mg/kg/injection, schedule: Q04DX003 (ip), vehicle: saline
  T/C: 114 % of control

## C=C1C(C)C2C(Cc3ccccc3)NC(=O)C23C(OC(C)=O)C=CC(C)(O)C(=O)C(C)C/C=C/C3C1O (stereo not given)
dose: 0.62 mg/kg/injection, schedule: Q01DX009 (ip), vehicle: saline with Tween-80
  T/C: 104 % of control
dose: 1.25 mg/kg/injection, schedule: Q01DX009 (ip), vehicle: saline with Tween-80
  T/C: 110 % of control
dose: 1.6 mg/kg/injection, schedule: Q01DX009 (ip), vehicle: saline
  T/C: 157 % of control
dose: 2.5 mg/kg/injection, schedule: Q01DX009 (ip), vehicle: saline
  T/C: 172 % of control

## Cc1c(C#N)c2n(c1C)CCN2
dose: 6.0 mg/kg/injection, schedule: Q01DX009 (ip), vehicle: Klucel (hydroxypropylcellulose) (HPC)
  T/C: 104 % of control
dose: 12.0 mg/kg/injection, schedule: Q01DX009 (ip), vehicle: Klucel (hydroxypropylcellulose) (HPC)
  T/C: 86 % of control
dose: 25.0 mg/kg/injection, schedule: Q01DX009 (ip), vehicle: Klucel (hydroxypropylcellulose) (HPC)
  T/C: 92 % of control and 100 % of control
dose: 25.0 mg/kg/injection, schedule: Q04DX003 (ip), vehicle: Klucel (hydroxypropylcellulose) (HPC)
  T/C: 95 % of control
dose: 50.0 mg/kg/injection, schedule: Q04DX003 (ip), vehicle: Klucel (hydroxypropylcellulose) (HPC)
  T/C: 100 % of control
[2]
  T/C: 108 % of control

## CC(=O)O[C@H]1CC[C@H]2[C@@H]3[C@H](C)CC4=CC(=O)CCC4[C@H]3CC[C@]12C (stereo not given in full)
dose: 100.0 mg/kg/injection, schedule: Q01DX009 (ip), vehicle: saline with Tween-80
  T/C: 95 % of control
[1]
  T/C: 100 % of control
dose: 200.0 mg/kg/injection, schedule: Q01DX009 (ip), vehicle: saline with Tween-80
  T/C: 90 % of control
[3]
  T/C: 95 % of control
dose: 400.0 mg/kg/injection, schedule: Q01DX009 (ip), vehicle: saline with Tween-80
  T/C: 100 % of control
[4]
  T/C: 100 % of control

## CCC(C)C1NC(=O)C(NC(=O)c2c3nc4c(C(=O)NC5C(=O)NC(C(C)CC)C(=O)N6CCCC6C(=O)N(C)CC(=O)N(C)C(C(C)C)C(=O)OC5C)cc(N)c(C)c4oc-3c(C)c(=O)c2N)C(C)OC(=O)C(C(C)C)N(C)C(=O)CN(C)C(=O)C2CCCN2C1=O (stereo not given)
dose: 0.15 mg/kg/injection, schedule: Q04DX003 (ip), vehicle: saline + alcohol
  T/C: 206 % of control
dose: 0.3 mg/kg/injection, schedule: Q04DX003 (ip), vehicle: saline + alcohol
  T/C: 227 % of control
dose: 0.6 mg/kg/injection, schedule: Q04DX003 (ip), vehicle: saline + alcohol
  T/C: 255 % of control and 312 % of control
dose: 1.2 mg/kg/injection, schedule: Q04DX003 (ip), vehicle: saline + alcohol
  T/C: 197 % of control
dose: 25.0 micrograms/kg/injection, schedule: Q01DX009 (ip), vehicle: saline + alcohol
  T/C: 190 % of control
dose: 50.0 micrograms/kg/injection, schedule: Q01DX009 (ip), vehicle: saline + alcohol
  T/C: 236 % of control
dose: 100.0 micrograms/kg/injection, schedule: Q01DX009 (ip), vehicle: saline + alcohol
  T/C: 232 % of control
dose: 200.0 micrograms/kg/injection, schedule: Q01DX009 (ip), vehicle: saline + alcohol
  T/C: 291 % of control
dose: 400.0 micrograms/kg/injection, schedule: Q01DX009 (ip), vehicle: saline + alcohol
  T/C: 86 % of control

## C(/C=N/N(c1ccccc1)c1ccccc1)=N\N(c1ccccc1)c1ccccc1
[2]
  T/C: 100 % of control
dose: 200.0 mg/kg/injection, schedule: Q04DX003 (ip), vehicle: Klucel (hydroxypropylcellulose) (HPC)
  T/C: 104 % of control
dose: 400.0 mg/kg/injection, schedule: Q04DX003 (ip), vehicle: Klucel (hydroxypropylcellulose) (HPC)
  T/C: 104 % of control

## C(=C\c1ccc2ccccc2n1)/c1ccc2c(c1)OCO2
[1]
  T/C: 100 % of control
[3]
  T/C: 100 % of control
[4]
  T/C: 88 % of control

Reference: PubChem BioAssay AID328 (DTP/NCI, 2004)
